Patent US10093673B2, “Tetracyclic pyridone compounds as antivirals” (Novartis AG, priority 2016, dated 2018)
Converted amounts (≈) assume the structure as drawn. Where two headings read alike, the source gives them in different places.

Experiments:
HBsAg secretion = test: HBsAg assay (ELISA of secreted HBsAg, HepG2-Clone42 cells); assay type: cell-based, HBV
Method: HepG2-Clone42, a Tet-inducible HBV-expressing cell line with a stably integrated 1.3mer copy of the HBV ayw strain, was generated based on the Tet-inducible HepAD38 cell line with slight modifications. Ladner S K, et al., Antimicrobial Agents and Chemotherapy. 41(8):1715-1720 (1997). HepG2-Clone42 cells were cultured in DMEM/F-12+Glutamax™ (Life Technologies, Carlsbad, Calif., USA), supplemented with 10% fetal bovine serum (Life Technologies), G-418 (Corning, Manassas, Va., USA) at a final concentration of 0.5 mg/mL, and 5 μg/mL Doxycycline (Sigma, St. Louis, Mo., USA) and maintained in 5% CO2 at 37° C.
HepG2-Clone42 cells were seeded in into black clear-bottom 96-well plates at a concentration of 6.0×10^4 cells/well. 24 hours post-seeding, the cells were treated with 200 μl/well of media containing five-fold serial dilutions of compounds in DMSO. DMSO alone was used as the no drug control. The final DMSO concentration in all wells was 0.5%.
The HBsAg ELISA kit (Alpha Diagnostic International, San Antonio, Tex., USE, Catalog #4110) was used to determine the level (semi-quantitative) of secreted HBV sAg.
The HBSAg ELISA assay was performed following the manufacturer's protocol as described.
Step 1. Pipet 100 μL each of compound or DMSO treated samples into HBsAg ELISA plates. Seal plates and incubate at room temp for 60 minutes.
Step 2. Aspirate samples and wash three times with Wash Buffer. Dispense 100μ of antibody-HRP conjugate to each well. Incubate at room temp for 30 minutes.
Step 3. Aspirate samples and wash three times with Wash Buffer. Add 100 μL of TMB Substrate to all wells and incubate 15 minutes at room temp.
Step 4. Dispense 100 μL of Stop Solution to each well. Measure absorbance of ELISA plate at 450 nm.
EC50 values were determined as follows: • 1. Determine the percent of HBsAg secretion inhibition. Calculate the percent inhibition on of HBsAg secretion inhibition using the following equation: 100×(XC−MB)/(MD−MB) • where XC is the absorbance signal from compound-treated well; MB is average absorbance signal (background signal) for column 12 (no cells+HBsAg ELISA sample buffer) and MD is average absorbance signal from DMSO-treated wells. Then calculate EC50 values by non-linear regression using a four parameter curve logistic equation. The curve fit model employed is XLFit Dose Response One Site Model 204: y=(A+((B−A)/(1+(10^((C−x)*D))))) where A is the minimum y value, B is the maximum y value, C is the log EC50 value, and D is the slope factor. High Throughput Solubility Measurement • 1. Transfer 20 ul of 10 mM DMSO stock solution into a 96 deep well plate labeled as […] and 5 ul to another plate labeled as compound standard plate. • 2. Place the buffer plate in a Multi-Tainer MT-4 container (FTS Systems). Freeze dry overnight to remove DMSO. • 3. Add 100 ul of Cl-free PBS (pH 6.8) to the dried compound in the buffer plate and 95 ul of DMSO to the standard plate. • 4. The buffer plate is be sonicated in a water bath for 10 min. • 5. The two plates are then placed onto the VWR orbital shaker to equilibrate for 24 hours at room temperature. • 6. The buffer plate is centrifuged at 4000 rpm for 30 min. • 7. Transfer 10 ul aliquots of supernatant from the buffer plate to a sample plate and dilute 5 fold. • 8. Inject both compound standard and sample into the UPLC/UV/CLND/MS to generate multi detector qualitative and quantitive analytical data. • 9. Data was processed with Xcalibur. CLND equimolar response was used for measuring compound concentration of DMSO solution. UV270 nm or MS relative ratio was used for solubility determination.

[1] = Pharmacokinetics in mice (iv and PO); assay type: in vivo; details: for Cmax / Tmax / AUC / clearance / bioavailability / Vd: mouse, in vivo; for bioavailability: read-out: Oral BA (% F); for Vd: read-out: Vss
[2] = Pharmacokinetics in rat (iv and PO); assay type: in vivo; details: for Cmax / Tmax / AUC / clearance / bioavailability / Vd: in vivo; for bioavailability: read-out: Oral BA (% F); for Vd: read-out: Vss
[3] = Pharmacokinetics in dog (iv and PO); assay type: in vivo; details: for Cmax / Tmax / AUC / clearance / bioavailability / Vd: in vivo; for bioavailability: read-out: Oral BA (% F); for Vd: read-out: Vss
[4] = High throughput solubility measurement in PBS; assay type: physicochemical; details: Cl-free PBS, aqueous buffer, thermodynamic from solid; PBS (phosphate-buffered saline), pH 6.8, 24 hours at room temperature
Source text: The following table provides data for solubility of compounds of the invention in PBS (phosphate-buffered saline), using a standard solubility screening method.

[5] = Hepatitis B virus, read-out: HBsAg EC50, HepG2-Clone42 cells, HBsAg secretion reduced 50% vs DMSO control
[6] = read-out: HBsAg EC50, HepG2-Clone42 cells, HBsAg secretion reduced 50% vs DMSO control

## COCCCOc1cc2c(cc1OC)-c1c(F)c(=O)c(C(=O)O)cn1[C@@H]1[C@H]2CCC1(C)C (racemic) [Compound 3.2]
HBsAg secretion; [5]
  EC50: 740 nM

## COCCCOc1cc2c(cc1OC)-c1cc(=O)c(C(=O)O)cn1[C@H]1[C@H]2CCC1(C)C (racemic) [rac-2, 10-methoxy-11-(3-methoxypropoxy)-3,3-dimethyl-7-oxo-1,2,3,3a,7,12b-hexahydrocyclopenta[c]pyrido[2,1-a]isoquinoline-6-carboxylic acid]
HBsAg secretion; [5]
  EC50: 460 nM

## COCCCOc1cc2c(cc1OC)-c1cc(=O)c(C(=O)O)cn1C1C2CCCC1(C)C (single isomer, unassigned) [Compound 9.1, 11-methoxy-12-(3-methoxypropoxy)-4,4-dimethyl-8-oxo-2,3,4,4a,8,13b-hexahydro-1H-pyrido[1,2-f]phenanthridine-7-carboxylic acid]
HBsAg secretion; [6]
  EC50: 9 nM

## COCCCOc1cc2c(cc1OC)-c1cc(=O)c(C(=O)O)cn1C1C2CCCC1(C)C (single isomer, unassigned) [Compound 9.2, 11-methoxy-12-(3-methoxypropoxy)-4,4-dimethyl-8-oxo-2,3,4,4a,8,13b-hexahydro-1H-pyrido[1,2-f]phenanthridine-7-carboxylic acid]
HBsAg secretion; [6]
  EC50: 303 nM

## COCCCOc1cc2c(cc1Cl)-c1cc(=O)c(C(=O)O)cn1[C@H]1[C@@H]2CCC1(C)C (stereo in doubt) [Compound 5.1, (3aS,12bR)-10-chloro-11-(3-methoxypropoxy)-3,3-dimethyl-7-oxo-1,2,3,3a,7,12b-hexahydrocyclopenta[c]pyrido[2,1-a]isoquinoline-6-carboxylic acid]
HBsAg secretion; [5]
  EC50: 6 nM

## COCCCOc1cc2c(cc1OC)-c1cc(=O)c(C(=O)O)cn1[C@H]1[C@@H]2CCC1(C)C [Compound 1.1, (3aS,12bR)-10-methoxy-11-(3-methoxypropoxy)-3,3-dimethyl-7-oxo-1,2,3,3a,7,12b-hexahydrocyclopenta[c]pyrido[2,1-a]isoquinoline-6-carboxylic acid]
HBsAg secretion; [5]
  EC50: 0.1 nM
[1]
  T1/2term.: 1.6 h
[1]; PO 2.0 mg/kg
  Cmax: 570 nM
  Tmax: 0.5 h
[1]; PO 2.0 mg/kg, read-out: AUC PO
  AUC: 1.7 µM·h
[1]; iv 1.0 mg/kg
  clearance: 24.6 mL/min/kg
  Vd: 3.6 L/kg
[1]; iv 1.0 mg/kg, PO 2.0 mg/kg
  bioavailability: 59%
[1]; iv 1.0 mg/kg, read-out: AUC iv
  AUC: 1.5 µM·h
[2]
  T1/2term.: 2.4 h
[2]; PO 2.0 mg/kg
  Cmax: 1720 nM
  Tmax: 1.33 h
[2]; PO 2.0 mg/kg, read-out: AUC PO
  AUC: 4.5 µM·h
[2]; iv 1.0 mg/kg
  clearance: 15.3 mL/min/kg
  Vd: 1.3 L/kg
[2]; iv 1.0 mg/kg, PO 2.0 mg/kg
  bioavailability: 97%
[2]; iv 1.0 mg/kg, read-out: AUC iv
  AUC: 2.5 µM·h
[3]
  T1/2term.: 5.9 h
[3]; PO 1.0 mg/kg
  Cmax: 1900 nM
  Tmax: 0.22 h
[3]; PO 1.0 mg/kg, read-out: AUC PO
  AUC: 5.7 µM·h
[3]; iv 0.5 mg/kg
  clearance: 6.4 mL/min/kg
  Vd: 1.7 L/kg
[3]; iv 0.5 mg/kg, PO 1.0 mg/kg
  bioavailability: 93%
[3]; iv 0.5 mg/kg, read-out: AUC iv
  AUC: 3.1 µM·h
[4]
  solubility at 24 h: 2400 µM (≈ 1030 µg/mL)

## COCCCOc1cc2c(cc1OC)-c1cc(=O)c(C(=O)O)cn1[C@@H]1[C@H]2CCC1(C)C [Compound 1.2, (3aR,12bS)-10-methoxy-11-(3-methoxypropoxy)-3,3-dimethyl-7-oxo-1,2,3,3a,7,12b-hexahydrocyclopenta[c]pyrido[2,1-a]isoquinoline-6-carboxylic acid]
HBsAg secretion; [5]
  EC50: 13 nM

## COCCCOc1cc2c(cc1OC)-c1c(F)c(=O)c(C(=O)O)cn1[C@H]1[C@@H]2CCC1(C)C [Compound 3.1, (3aS,12bR)-8-fluoro-10-methoxy-11-(3-methoxypropoxy)-3,3-dimethyl-7-oxo-1,2,3,3a,7,12b-hexahydrocyclopenta[c]pyrido[2,1-a]isoquinoline-6-carboxylic acid]
HBsAg secretion; [5]
  EC50: 0.3 nM
[1]
  T1/2term.: 3.8 h
[1]; PO 2.0 mg/kg
  Cmax: 3000 nM
  Tmax: 0.5 h
[1]; PO 2.0 mg/kg, read-out: AUC PO
  AUC: 9.5 µM·h
[1]; iv 1.0 mg/kg
  clearance: 6.9 mL/min/kg
  Vd: 1 L/kg
[1]; iv 1.0 mg/kg, PO 2.0 mg/kg
  bioavailability: 87%
[1]; iv 1.0 mg/kg, read-out: AUC iv
  AUC: 5.5 µM·h
[2]
  T1/2term.: 9.2 h
[2]; PO 2.0 mg/kg
  Cmax: 6500 nM
  Tmax: 0.5 h
[2]; PO 2.0 mg/kg, read-out: AUC PO
  AUC: 19.6 µM·h
[2]; iv 1.0 mg/kg
  clearance: 2.1 mL/min/kg
  Vd: 0.6 L/kg
[2]; iv 1.0 mg/kg, PO 2.0 mg/kg
  bioavailability: 57%
[2]; iv 1.0 mg/kg, read-out: AUC iv
  AUC: 16.6 µM·h
[3]
  T1/2term.: 7.2 h
[3]; PO 1.0 mg/kg
  Cmax: 6200 nM
  Tmax: 1.5 h
[3]; PO 1.0 mg/kg, read-out: AUC PO
  AUC: 26.7 µM·h
[3]; iv 0.5 mg/kg
  clearance: 1.3 mL/min/kg
  Vd: 0.6 L/kg
[3]; iv 0.5 mg/kg, PO 1.0 mg/kg
  bioavailability: 96%
[3]; iv 0.5 mg/kg, read-out: AUC iv
  AUC: 13.3 µM·h
[4]
  solubility at 24 h: 1600 µM (≈ 713 µg/mL)

## COCCCOc1cc2c(cc1Cl)-c1cc(=O)c(C(=O)O)cn1[C@@H]1[C@H]2CCC1(C)C [Compound 5.2, (3aR,12bS)-10-chloro-11-(3-methoxypropoxy)-3,3-dimethyl-7-oxo-1,2,3,3a,7,12b-hexahydrocyclopenta[c]pyrido[2,1-a]isoquinoline-6-carboxylic acid]
HBsAg secretion; [5]
  EC50: 0.1 nM

## COCCCOc1cc2c(cc1OC)-c1cc(=O)c(C(=O)O)cn1C1CCCC21 (stereo not shown) [Compound 6.1, 10-methoxy-11-(3-methoxypropoxy)-7-oxo-1,2,3,3a,7,12b-hexahydrocyclopenta[c]pyrido[2,1-a]isoquinoline-6-carboxylic acid]
HBsAg secretion; [5]
  EC50: 9 nM

## COCCCOc1cc2c(cc1OC)-c1cc(=O)c(C(=O)O)cn1C1CCCC21 (stereo not shown) [Compound 6.2, 10-methoxy-11-(3-methoxypropoxy)-7-oxo-1,2,3,3a,7,12b-hexahydrocyclopenta[c]pyrido[2,1-a]isoquinoline-6-carboxylic acid]
HBsAg secretion; [6]
  EC50: 5 nM

## COCCCOc1cc2c(cc1OC)-c1c(F)c(=O)c(C(=O)O)cn1[C@H]1[C@@H]2OCC1(C)C [Compound 7.1, (3aR,12bR)-8-fluoro-10-methoxy-11-(3-methoxypropoxy)-3,3-dimethyl-7-oxo-3,3a,7,12b-tetrahydro-2H-furo[3,2-c]pyrido[2,1-a]isoquinoline-6-carboxylic acid]
HBsAg secretion; [5]
  EC50: 0.8 nM

## COCCCOc1cc2c(cc1OC)-c1c(F)c(=O)c(C(=O)O)cn1C1[C@H]2OCC1(C)C (stereo partly shown) [Compound 7.2]
HBsAg secretion; [5]
  EC50: 90 nM

## COCCCOc1cc2c(cc1OC)-c1cc(=O)c(C(=O)O)cn1[C@H]1[C@@H]2COC1(C)C [Compound 8.1, (3aS,12bR)-10-methoxy-11-(3-methoxypropoxy)-3,3-dimethyl-7-oxo-3,3a,7,12b-tetrahydro-1H-furo[3,4-c]pyrido[2,1-a]isoquinoline-6-carboxylic acid]
HBsAg secretion; [5]
  EC50: 1 nM
